The text below walks through data of patent US11780826B2 (Amgen Inc., priority 2017, dated 2023).

Molecules are shown by their SMILES.

This experiment concerns Bovine cardiac myofibrils. The experiment can be described thus: In vitro model of dose-dependent myofibril ATPase modulation (AC1.4, pyruvate kinase/lactate dehydrogenase-coupled ATPase assay at pCa25). In kind it is biochemical. Conditions: concentration at which ATPase activity was 1.4-fold higher than the bottom of the dose curve, mean of a minimum of two independent tests. The gist of the method:
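ATP turnover tracked as NADH absorbance loss at 340 nm, coupled via pyruvate kinase/lactate dehydrogenase, with 1 mM ATP, 2 mM MgCl2 and 12 mM K-PIPES at pH 6.80 (22° C) under EGTA/CaCl2 calcium buffering. Substrate was detergent-treated bovine cardiac myofibrils; 4-parameter curve fit, AC1.4 averaged over at least two runs.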
Compound `NC(=O)C1(c2cccc(C(=O)N3[C@@H](C(=O)N[C@@H](c4ccc(C(F)(F)F)cc4F)C4COC4)C[C@H]4C[C@H]43)c2)CC1` [Example 349, (1R,3R,5R)-2-(3-(1-carbamoylcyclopropyl)benzoyl)-N-((R)-(2-fluoro-4-(trifluoromethyl)phenyl)(3-oxetanyl)methyl)-2-azabicyclo[3.1.0]hexane-3-carboxamide] showed an AC1.4 of 1.0296 µM.

`N#CC1CN(S(=O)(=O)N2CCC[C@H](C(=O)N3CCC[C@@H]3C(=O)NCc3cc(F)c(Cl)cc3F)C2)C1` [Example 20, N-(4-chloro-2,5-difluorobenzyl)-1-(((3S)-1-((3-cyano-1-azetidinyl)sulfonyl)-3-piperidinyl)carbonyl)-D-prolinamide] displayed an AC1.4 of 0.02545 µM.

`CS(=O)(=O)c1cncc(C(=O)N2CC[C@H](C(F)(F)F)[C@H]2C(=O)N[C@@H](c2cc(F)c(C(F)(F)F)cc2F)C2CC2)c1` [Example 236, (3S)-N-((R)-cyclopropyl(2,5-difluoro-4-(trifluoromethyl)phenyl)methyl)-1-((5-(methylsulfonyl)-3-pyridinyl)carbonyl)-3-(trifluoromethyl)-L-prolinamide]: the AC1.4 amounted to 0.5579 µM.

In turn, `O=C(NCc1ccc(C(F)(F)F)cc1)[C@H]1CCCN1C(=O)c1cccc(S(=O)(=O)Cc2ccccc2)c1` [Example 454, 1-(3-(benzylsulfonyl)benzoyl)-N-(4-(trifluoromethyl)benzyl)-D-prolinamide] registered an AC1.4 of 1.8665 µM.

Regarding `C[C@H](NC(=O)[C@H]1CCCN1C(=O)[C@H]1CCCN(S(=O)(=O)N2CC(C#N)C2)C1)c1ccc(Cl)c(F)c1` [Example 462, N-((1S)-1-(4-chloro-3-fluorophenyl)ethyl)-1-(((3S)-1-((3-cyano-1-azetidinyl)sulfonyl)-3-piperidinyl)carbonyl)-D-prolinamide], the AC1.4 came to 1.9235 µM.

In turn, `CCOc1ccc(CNC(=O)[C@H]2CCCN2C(=O)[C@H]2CCCN(S(=O)(=O)N3CC(C#N)C3)C2)cc1F` [Example 708, 1-(((3S)-1-((3-cyano-1-azetidinyl)sulfonyl)-3-piperidinyl)carbonyl)-N-(4-ethoxy-3-fluorobenzyl)-D-prolinamide] registered an AC1.4 of 5.8345 µM.

Turning to `COCC1CN(S(=O)(=O)N2CCC[C@H](C(=O)N3CCC[C@@H]3C(=O)NCc3ccc(C(F)(F)F)cc3)C2)C1` [Example 788, 1-(((3S)-1-((3-(methoxymethyl)-1-azetidinyl)sulfonyl)-3-piperidinyl)carbonyl)-N-(4-(trifluoromethyl)benzyl)-D-prolinamide], the AC1.4 was found to be 8.9395 µM.

For `C[C@H](NC(=O)[C@H]1CCCN1C(=O)[C@H]1CCCN(S(=O)(=O)N2CC(C#N)C2)C1)c1ccc(Cl)cc1` [Example 803, N-((1S)-1-(4-chlorophenyl)ethyl)-1-(((3S)-1-((3-cyano-1-azetidinyl)sulfonyl)-3-piperidinyl)carbonyl)-D-prolinamide], the AC1.4 is 9.622 µM.

In the case of `CCS(=O)(=O)c1cccc(C(=O)N2[C@@H](C(=O)N[C@@H](c3cc(F)c(C(F)F)cc3F)C3CC3)C[C@H]3C[C@H]32)c1` [Example 178, (1R,3R,5R)-N-((R)-cyclopropyl(4-(difluoromethyl)-2,5-difluorophenyl)methyl)-2-(3-(ethylsulfonyl)benzoyl)-2-azabicyclo[3.1.0]hexane-3-carboxamide], the AC1.4 is 0.314 µM.

In the case of `N#CC1CN(S(=O)(=O)N2CCC[C@H](C(=O)N3CCC[C@@H]3C(=O)NCc3ccccc3Cl)C2)C1` [Example 574, N-(2-chlorobenzyl)-1-(((3S)-1-((3-cyano-1-azetidinyl)sulfonyl)-3-piperidinyl)carbonyl)-D-prolinamide], the AC1.4 came to 3.2325 µM.

The compound `COc1ccc(C(C)NC(=O)[C@H]2CCCN2C(=O)[C@H]2CCCN(S(=O)(=O)N3CC(C#N)C3)C2)cc1F` (stereo partly drawn) [Example 585, 1-(((3S)-1-((3-cyano-1-azetidinyl)sulfonyl)-3-piperidinyl)carbonyl)-N-((1R)-1-(3-fluoro-4-methoxyphenyl)ethyl)-D-prolinamide,1-(((3S)-1-((3-cyano-1-azetidinyl)sulfonyl)-3-piperidinyl)carbonyl)-N-((1S)-1-(3-fluoro-4-methoxyphenyl)ethyl)-D-prolinamide] showed an AC1.4 of 3.413 µM.

With `C[C@@H](NC(=O)[C@H]1[C@@H]2C[C@@H]2CN1C(=O)c1cccc(S(=O)(=O)N(C)C)c1)c1ccc(C(F)(F)F)cc1` [Example 572, (1R,2R,5S)-3-(3-(dimethylsulfamoyl)benzoyl)-N-((1R)-1-(4-(trifluoromethyl)phenyl)ethyl)-3-azabicyclo[3.1.0]hexane-2-carboxamide], the AC1.4 came out at 3.205 µM.

`C[C@@H](NC(=O)[C@H]1CCCN1C(=O)[C@H]1CCCN(S(=O)(=O)N2CC(C#N)C2)C1)c1cc(F)cc(F)c1` [Example 391, 1-(((3S)-1-((3-cyano-1-azetidinyl)sulfonyl)-3-piperidinyl)carbonyl)-N-((1R)-1-(3,5-difluorophenyl)ethyl)-D-prolinamide] had an AC1.4 of 1.3505 µM.

`CS(=O)(=O)c1cccc(C(=O)N2CCC[C@@H]2C(=O)N[C@@H](c2ccc(Cl)cc2F)C2CC2)c1` [Example 479, N-((R)-(4-chloro-2-fluorophenyl)(cyclopropyl)methyl)-1-(3-(methylsulfonyl)benzoyl)-D-prolinamide]: the AC1.4 came to 1.887 µM.

As to `CN1CC(C(NC(=O)[C@H]2C[C@H]3C[C@H]3N2C(=O)c2cccc(S(C)(=O)=O)c2)c2ccc(C(F)(F)F)cc2F)CC1=O` (stereo partly drawn) [Example 519, (1R,3R,5R)-N-((2-fluoro-4-(trifluoromethyl)phenyl)(1-methyl-5-oxopyrrolidin-3-yl)methyl)-2-(3-(methylsulfonyl)benzoyl)-2-azabicyclo[3.1.0]hexane-3-carboxamide], the AC1.4 was determined as 2.367 µM.

As for `CCNc1ccc(C)cc1C(=O)N1CCC[C@@H]1C(=O)N[C@@H](c1ccc(C(F)(F)F)cc1F)C1CC1` [Example 108, N-((R)-cyclopropyl(2-fluoro-4-(trifluoromethyl)phenyl)methyl)-1-(2-(ethylamino)-5-methylbenzoyl)-D-prolinamide], the AC1.4 came to 0.1689 µM.

Take `C[C@@H](NC(=O)[C@H]1CCCN1C(=O)c1cccc(S(=O)(=O)N2CC3(CC3)C2)c1)c1ccc(Cl)c(Cl)c1` [Example 635, 1-((3-(5-azaspiro[2.3]hex-5-ylsulfonyl)phenyl)carbonyl)-N-((1R)-1-(3,4-dichlorophenyl)ethyl)-D-prolinamide]: the AC1.4 stood at 4.1355 µM.

With `COc1cccc2c1CCC2NC(=O)[C@H]1CCCN1C(=O)[C@H]1CCCN(S(=O)(=O)N2CC(C#N)C2)C1` (stereo partly drawn) [Example 242, (2R)-1-((S)-1-((3-cyanoazetidin-1-yl)sulfonyl)piperidine-3-carbonyl)-N-(4-methoxy-2,3-dihydro-1H-inden-1-yl)pyrrolidine-2-carboxamide], the AC1.4 is 0.573 µM.

Regarding `CS(=O)(=O)c1cncc(C(=O)N2CC(F)(F)C2C(=O)N[C@@H](c2cc(F)c(C(F)(F)F)cc2F)C2CC2)c1` (stereo partly drawn) [Example 767, N-((R)-cyclopropyl(2,5-difluoro-4-(trifluoromethyl)phenyl)methyl)-3,3-difluoro-1-(5-(methylsulfonyl)nicotinoyl)azetidine-2-carboxamide], the AC1.4 came to 8.015 µM.

For `CN(C)S(=O)(=O)c1cccc(C(=O)N2CCC[C@@H]2C(=O)NCc2ccc(C(F)(F)F)cc2F)c1` [Example 459, 1-(3-(dimethylsulfamoyl)benzoyl)-N-(2-fluoro-4-(trifluoromethyl)benzyl)-D-prolinamide], the AC1.4 was 1.8995 µM.

As to `O=C(NCc1ccc(C(F)(F)F)cc1)[C@H]1CCCN1C(=O)[C@H]1CCCN(S(=O)(=O)N2CC(F)(c3ccccc3)C2)C1` [Example 463, 1-(((3S)-1-((3-fluoro-3-phenyl-1-azetidinyl)sulfonyl)-3-piperidinyl)carbonyl)-N-(4-(trifluoromethyl)benzyl)-D-prolinamide], the AC1.4 was 1.9305 µM.

`CC1(C#N)CN(S(=O)(=O)N2CCC[C@H](C(=O)N3CCC[C@@H]3C(=O)NCc3ccc(C(F)(F)F)cc3)C2)C1` [Example 156, 1-(((3S)-1-((3-cyano-3-methyl-1-azetidinyl)sulfonyl)-3-piperidinyl)carbonyl)-N-(4-(trifluoromethyl)benzyl)-D-prolinamide] registered an AC1.4 of 0.2727 µM.

Turning to `Nc1ccccc1C(=O)N1[C@@H](C(=O)N[C@@H](c2ccc(C(F)(F)F)cc2F)C2CC2)C[C@H]2C[C@H]21` [Example 755, (1R,3R,5R)-2-(2-aminobenzoyl)-N-((R)-cyclopropyl(2-fluoro-4-(trifluoromethyl)phenyl)methyl)-2-azabicyclo[3.1.0]hexane-3-carboxamide], the AC1.4 turned out to be 7.5435 µM.

In the case of `COc1ccc(CNC(=O)[C@H]2CCCN2C(=O)[C@H]2CCCN(S(=O)(=O)N3CC(C#N)C3)C2)cc1C` [Example 672, 1-(((3S)-1-((3-cyano-1-azetidinyl)sulfonyl)-3-piperidinyl)carbonyl)-N-(4-methoxy-3-methylbenzyl)-D-prolinamide], the AC1.4 was found to be 4.8355 µM.

In the case of `O=C(NCc1ccc(C(F)(F)F)cc1F)[C@H]1CCCN1C(=O)[C@H]1CCCN(S(=O)(=O)N2CC(O)C2)C1` [Example 610, N-(2-fluoro-4-(trifluoromethyl)benzyl)-1-(((3S)-1-((3-hydroxy-1-azetidinyl)sulfonyl)-3-piperidinyl)carbonyl)-D-prolinamide], the AC1.4 worked out at 3.7735 µM.

The compound `O=C(NCc1ccc(C(F)(F)F)cc1)[C@H]1CCCN1C(=O)[C@H]1CCCN(S(=O)(=O)N2CC3(CCO3)C2)C1` [Example 654, (R)-1-((S)-1-(1-oxa-6-azaspiro[3.3]heptan-6-ylsulfonyl)piperidine-3-carbonyl)-N-(4-(trifluoromethyl)benzyl)pyrrolidine-2-carboxamide] yielded an AC1.4 of 4.538 µM.
